Data taken from publication PMC10799918, “Revealing the mechanistic interactions of profenofos and captan pesticides with serum protein via biophysical and computational investigations” (Scientific Reports, 2024).

Molecular target: T1, bovine serum albumin (BSA) (Bos taurus, UniProt P02769)
T1 construct: gene ALB; PDB 4F5S used for docking only
Experiment: intrinsic fluorescence quenching (ex […] nm, em […] nm), double-logarithmic plot
Type: binding
Conditions: 310 K, pH 7.4, 10 mM Tris-HCl, 150 mM NaCl, 2 uM BSA, 0.1% acetonitrile, no site probe; double-log

T1 sequence (P02769 25-607): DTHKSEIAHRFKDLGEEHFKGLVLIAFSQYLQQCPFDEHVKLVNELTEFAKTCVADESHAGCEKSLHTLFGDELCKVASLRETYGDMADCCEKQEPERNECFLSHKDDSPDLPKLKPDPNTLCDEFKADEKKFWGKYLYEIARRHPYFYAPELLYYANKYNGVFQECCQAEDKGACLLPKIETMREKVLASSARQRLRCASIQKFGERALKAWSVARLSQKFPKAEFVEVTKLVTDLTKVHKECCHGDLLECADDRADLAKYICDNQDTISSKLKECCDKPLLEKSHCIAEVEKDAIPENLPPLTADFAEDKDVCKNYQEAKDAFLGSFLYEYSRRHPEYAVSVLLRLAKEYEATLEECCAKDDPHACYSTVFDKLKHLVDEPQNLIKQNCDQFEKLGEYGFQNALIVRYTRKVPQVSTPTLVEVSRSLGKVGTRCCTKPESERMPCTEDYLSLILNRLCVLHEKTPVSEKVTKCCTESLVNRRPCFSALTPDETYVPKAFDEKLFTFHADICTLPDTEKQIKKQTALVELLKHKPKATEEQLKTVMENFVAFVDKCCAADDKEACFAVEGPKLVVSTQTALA

Structure (SMILES)	Ka (M^-1)	Ka [M⁻¹]
O=C1C2CC=CCC2C(=O)N1SC(Cl)(Cl)Cl (centres unmarked) [compound 2, 2-(trichloromethylsulfanyl)-3a,4,7,7a-tetrahydroisoindole-1,3-dione]	14,581 ± 1.40 M^-1	–
CCCSP(=O)(OCC)Oc1ccc(Br)cc1Cl (centres unmarked) [compound 1, 4-bromo-2-chloro-1-[ethoxy(propylsulfanyl)phosphoryl]oxybenzene]	–	3897 ± 1.49
